Publication PMC10850954, “HDAC6/aggresome processing pathway importance for inflammasome formation is context-dependent” (The Journal of Biological Chemistry, 2024)

What was measured:
[1] = system: pyrin inflammasome; test: IL-18 release in U937-pyrin cells after BAA473 activation; type: cell-based, human; conditions: BAA473 200 μM 4 h, vs DMSO or XY-07-191 control
Method: Cells were treated with the indicated compounds and HDAC6 was detected by immunoblotting with an anti-HDAC6 antibody. Detection of actin was used as a control for protein loading. […] Pyrin inflammasome was activated by BAA473 (200 μM) for 4 h at 37 °C. […] The graph at the bottom presents IL-18 release based on four independent experiments.
Human IL-1β and IL-18 were determined with Cisbio HTRF Cisbio Human IL1β (#62HIL1BPET) and Human IL18 (#62HIL18PEG) protocols. All the data were from 3 or 4 independent biological replicates.
For pyrin inflammasome, U937-pyrin cells were seeded in 96 well after 0.5 μM PMA treatment for 3 h and then challenged by BAA473 (200 μM) for 4 h at 37 °C.

[2] = molecular target: T1, HDAC6 (Homo sapiens, UniProt Q9UBN7); test: HDAC6 degradation in PBMCs (immunoblot); type: cell-based; set-up: endogenous in cells; host or cells: PBMCs (with or without LPS priming); conditions: XY-07-35 at 1 μM
T1 sequence (Q9UBN7 1-1215): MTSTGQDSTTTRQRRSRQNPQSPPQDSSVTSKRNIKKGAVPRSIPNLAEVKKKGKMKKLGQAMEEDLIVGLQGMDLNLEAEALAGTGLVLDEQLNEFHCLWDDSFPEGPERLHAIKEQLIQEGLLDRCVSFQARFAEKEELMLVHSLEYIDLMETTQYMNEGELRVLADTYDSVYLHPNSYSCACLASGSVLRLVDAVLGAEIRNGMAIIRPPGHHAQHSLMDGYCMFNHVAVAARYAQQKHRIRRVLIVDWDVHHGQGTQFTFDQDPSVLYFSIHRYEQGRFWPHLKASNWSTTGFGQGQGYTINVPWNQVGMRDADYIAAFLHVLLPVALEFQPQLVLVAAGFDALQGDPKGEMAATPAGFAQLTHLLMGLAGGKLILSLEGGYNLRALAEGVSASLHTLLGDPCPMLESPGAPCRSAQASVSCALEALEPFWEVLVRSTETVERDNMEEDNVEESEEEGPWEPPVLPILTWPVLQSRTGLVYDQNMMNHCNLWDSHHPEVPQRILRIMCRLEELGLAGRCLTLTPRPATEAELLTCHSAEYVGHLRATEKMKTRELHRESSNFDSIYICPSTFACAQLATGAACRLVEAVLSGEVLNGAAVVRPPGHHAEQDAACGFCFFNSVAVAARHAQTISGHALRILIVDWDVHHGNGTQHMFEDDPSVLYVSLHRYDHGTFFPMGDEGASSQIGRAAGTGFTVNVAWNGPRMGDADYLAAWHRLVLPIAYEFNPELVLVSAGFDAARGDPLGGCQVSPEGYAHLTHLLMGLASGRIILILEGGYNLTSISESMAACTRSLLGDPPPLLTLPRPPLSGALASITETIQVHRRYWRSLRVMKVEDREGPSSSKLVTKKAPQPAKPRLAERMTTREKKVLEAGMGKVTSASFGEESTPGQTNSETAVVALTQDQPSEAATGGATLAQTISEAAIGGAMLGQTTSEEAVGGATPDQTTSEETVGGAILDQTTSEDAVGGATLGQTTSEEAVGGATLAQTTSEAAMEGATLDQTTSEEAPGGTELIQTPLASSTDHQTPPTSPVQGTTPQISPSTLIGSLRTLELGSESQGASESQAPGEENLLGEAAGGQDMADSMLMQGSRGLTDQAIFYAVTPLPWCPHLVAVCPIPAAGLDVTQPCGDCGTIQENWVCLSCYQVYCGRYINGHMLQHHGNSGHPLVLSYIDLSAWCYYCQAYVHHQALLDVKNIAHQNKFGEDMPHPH
Source text: Figure 3 Effect of […] mediated HDAC6 degradation on NLRP3 inflammasome activation in PBMCs.A, schematic of the mode of action of an HDAC6 degrader. The PROTAC engages both HDAC6 and the E3 ligase cereblon (CRBN), which then leads to ubiquitination and degradation of HDAC6. B, chemical structure of the HDAC6 degrader XY-07-35 and of the negative control XY-07-191 which no longer recruits CRBN. C, in vitro enzymatic assay of compound XY-07-35 on the activity of different HDACs. IC50 for each enzyme is shown. D, XY-07-35 mediated HDAC6 degradation in PBMCs. PBMCs (without or with LPS priming for 4 h) were treated with the indicated compounds and HDAC6 levels were detected by immunoblotting with an anti-HDAC6 antibody. Detection of actin was used as a control for loading. CGP, CGP084892 (Caspase-1 inhibitor); AFN700 is an inhibitor of the NF-kB pathway (IKK inhibitor). E, HDAC6 degradation impact on IL-1β release in PBMCs following MSU 200 μg/ml (5 h), nigericin 2 μM (2 h) or ATP 3 mM (0.5 h) treatment. Cells were first primed with 0.2 ng/ml LPS for 4 h at 37 °C, then treated with MSU, nigericin, and ATP as indicated. […]
Treated BMDM cells were lysed with RIPA buffer (supplied with cOmplete Protease Inhibitor Cocktail, Merck#11697498001), and protein concentration was determined by Bradford assay. […]

Structure (SMILES)	change in IL-18 secretion [1]	HDAC6 degradation / effect on HDAC6 levels [2]
CN(C(=O)CCCNc1cccc2c1C(=O)N(C1CCC(=O)NC1=O)C2=O)c1ccc(NC(=O)CCCCCCC(=O)NO)cc1 (stereo not drawn) [XY-07-35]	did not result in any change	efficiently degraded
CN1C(=O)CCC(N2C(=O)c3cccc(NCCCC(=O)N(C)c4ccc(NC(=O)CCCCCCC(=O)NO)cc4)c3C2=O)C1=O (stereo not drawn) [XY-07-191]	–	only minimal or no effect on HDAC6 levels
